Test results taken from patent US20240226049A1, “METHODS OF TREATMENT USING BEMPEDOIC ACID” (Esperion Therapeutics, Inc., priority 2023, published 2024).

Test system: primary prevention patients unable to tolerate recommended doses of statins
Test: CLEAR OUTCOMES primary prevention subgroup (Example 2): investigator-reported adverse events and safety laboratory findings
Format: in vivo
Procedure: The rationale, design and methods of the CLEAR Outcomes trial is described in Example 1. The trial was conducted at 1250 sites in 32 countries and designed by the Cleveland Clinic Coordinating Center for Clinical Research (C5Research) and an academic Executive Committee in collaboration with the sponsor. The protocol was approved by ethics committees at participating sites and all patients provided written informed consent before enrollment. A contract research organization collected the data which were transferred to C5Research at completion of the trial whose statisticians conducted the analyses described herein. An independent Data Monitoring Committee monitored the trial.
Primary prevention patients 18 to 85 years of age with an LDL cholesterol ≥100 mg/dL with clinical features placing them at high risk for a first cardiovascular event were eligible. Criteria for high cardiovascular risk included risk scores, such as the Reynolds Risk Score and the SCORE project (Ridker et al., Development and validation of improved algorithms for the assessment of global cardiovascular risk in women: the Reynolds Risk Score, JAMA. 2007 Feb. 14; 297(6):611-9; Ridker et al., C-reactive protein and parental history improve global cardiovascular risk prediction. The Reynolds Risk Score for men, Circulation. 2008; 118: 2243-2251; European Guidelines on CVD Prevention in Clinical Practice. 2016. Eur J Prev Cardiol. 2016 July; 23(11):NP1-NP96), a coronary artery calcium score >400 Agatston units (AU) or presence of either type 1 or 2 diabetes in women aged >65 years or men older than 60 years.
Investigators were responsible for assessing the patient for statin intolerance. Patients had to report statin intolerance due to an adverse effect that started or increased during statin therapy and resolved or improved after statin therapy was discontinued. Entry criteria required inability to tolerate 2 or more statins at any dose or 1 statin and unwillingness to attempt a second statin or advised by a physician not to attempt taking a second statin. Both the patient and site investigator were required to provide written confirmation that the patient was statin intolerant and aware of the benefits of statins to reduce the risk of cardiovascular events, including death, and acknowledge that many patients who are unable to tolerate a statin can tolerate a different statin or dose. Patients could be enrolled if they tolerated a very low average daily statin dose defined as rosuvastatin <5 mg, atorvastatin <10 mg, simvastatin <10 mg, lovastatin <20 mg, pravastatin <40 mg, fluvastatin <40 mg, or pitavastatin <2 mg. Other background lipid-lowering therapies were permitted, including ezetimibe, niacin, bile acid resins, fibrates, and/or proprotein convertase subtilisin kexin type 9 (PCSK9) inhibitors.
Eligible patients entered a 4-week run-in period during which patients were treated with single-blind placebo. If patients were intolerant to placebo treatment or if adherence was <80% by tablet count, they were not eligible for randomization. Patients who successfully completed the run-in period were randomly assigned in a 1:1 ratio to receive a 180 mg oral dose of bempedoic acid or matching placebo, administered daily. During the trial, LDL cholesterol and hsCRP results were masked. Beginning 6 months after randomization, the central laboratory notified the investigator, who remained blinded to treatment assignment, if the patient's LDL cholesterol level was ≥25% higher than baseline. Repeat testing was performed after the patient was counseled about diet and encouraged to take all medications as prescribed. The patient returned for a repeat fasting blood lipid profile to confirm whether the LDL cholesterol value exceeded the threshold criteria. If confirmed, the patient's treatment regimen for LDL cholesterol lowering could be adjusted, per standard of care and local practice. […]

[1] = primary prevention safety population
[2] = primary prevention safety population, N = 2104
[3] = primary prevention, after 6 months
[4] = primary prevention, after 12 months

## CC(C)(CCCCCC(O)CCCCCC(C)(C)C(=O)O)C(=O)O [Bempedoic Acid, Bempedoic acid]
[1]
  New onset diabetes in patients with pre-diabetes at baseline, %: (8.4) %
  New onset diabetes in patients without diabetes at baseline, %: (6.4) %
[2]
  Adjudicated tendon rupture, %: 1.4%
  Adverse event leading to drug discontinuation, %: 9.9%
  Any treatment emergent adverse event, %: 84.8%
  Atrial fibrillation, %: 2.5%
  Cholelithiasis, %: 2.5%
  Discontinuation of treatment due to myalgia, %: 1.4%
  Elevated hepatic enzymes, %: 4.5%
  Gout, %: 2.6%
  Hyperuricemia, %: 12.1%
  Hypoglycemia, %: 4.9%
  Malignancies, %: 4.0%
  Muscular disorders, %: 12.8%
  Myalgias, %: 4.2%
  Neurocognitive disorders, %: 0.4%
  Renal impairment, %: 10.3%
  Serious treatment emergent adverse event, %: 19.9%
  Tendinopathies, %: 1.8%
[3]
  Change from baseline in creatinine levels, mean (SD): 0.05 (0.19) mg/dL
  Change from baseline in uric acid level, mean (SD): 0.80 (1.1)^ mg/dL
  Patients with creatinine >1.5 mg/dL, %: (3.3%)
  Patients with uric acid level >8.5 mg/dL, %: (10.8%)
[4]
  Change from baseline in glycated hemoglobin level (%), patients with diabetes at baseline: 0.03(0.96) %
  Change from baseline in glycated hemoglobin level (%), patients without diabetes at baseline: 0.02(0.26) %
Primary prevention, after 12 months, not a prespecified safety measure
  Change from baseline in glycated hemoglobin level (%): 0.03 (0.79) %
Primary prevention, at any visit
  Aspartate aminotransferase level >3 times ULN, %: 3.5%
Primary prevention, at any visit, N = 2104
  Creatine kinase levels >10x ULN (single occurrence), %: 0.2%
Primary prevention, at any visit, repeated and confirmed
  Alanine aminotransferase level >3 times ULN, %: 2.1%
Primary prevention, in patients with diabetes at baseline
  Worsening hyperglycemia, %: (21.6) %
